One data set deals with MCF10A/NLS-DAO cells. In words: Western blot of EMT markers in MCF10A/NLS-DAO cells. Format: cell-based. Particulars: D-Ala 10 nM, activation of nuclear ROS. As for the experimental part:
FIG. 1B is a graph of experimental data showing the quantification of the relative levels of nuclear ROS shown as the ratio of fluorescence between the oxidized and reduced forms. FIG. 1C is a Western blot analysis showing increased EMT markers after activation of nuclear ROS with D-Ala (10 nM). FIG. 1D is a graph of experimental data showing proliferation curves comparing naïve (MCF10A) and D-Ala (10 nM) exposed MCF10A/NLS-DAO cells. Results are averages of at least 5 biologic replicates with (*) representing p<0.05.
Nuclear ROS are sufficient and required to activate EMT and metastasis of breast cancer cells. ROS levels were measured in the nuclei of different breast cancer cell lines displaying vastly different tumorigenicity and metastatic potential using novel NLS-Orp1roGFP2 biosensors. […] Also, transformation of MCF10A by v-Src promoted a marked increase in nuclear ROS levels (FIGS. 1A & B). […] To directly link nuclear ROS with aggressive cancer behavior, a nucleus-targeted system (NLS-D-amino acid oxidase, NLS-DAO) was engineered that allows to generate ROS21 directly in the nucleus and expressed it into MCF10A cells to recreate, using a non-transformed cell background, this distinctive feature of metastatic breast cancer cell lines. […]
Background: In western blotting, separated proteins are transferred to a membrane and probed.

The next data set has as its system CYP. Briefly: inhibition of CYP. Format: in vitro ADME. An excerpt: (§1) In one embodiment, the compositions and methods of the disclosure relate to targeting oxidative stress upstream at the mitochondria that may be causative for many disorders, including, but not limited to, cancer, pain, and/or pain related conditions. There have been a variety of attempts to lower cellular stress, such as administering anti-oxidants, however these drugs have limited tissue penetration into the brain and lower ROSs after they have been formed. […] While not being bound to theory, it is postulated that DNP modulates the mitochondrial membrane potential having a significant impact at preventing ROS formation in isolated mitochondria and in the treated wildtype mice. DNP treatment 3-hours post-ischemia reduced cerebral infarct volume 40% by protecting the penumbra or “threaten tissue” and could provide similar benefits after a blast to protect inner hair cells from eminent cell death. DNP comes with the benefits of known risks as it was used 80-years ago for weight loss at high doses (˜300 mg) in over 100,000 people, however shown recently in models of neurodegeneration at very low hermetic doses to improve cognition and learning. The pharmacology, which is pleiotropic, appears to provide broad neuroprotection by lowering ROS/mTOR and increasing protective factors such as CAMP, CREB, and BDNF, could be useful for treating hearing loss.

For data set [1] the following is noted: at the doses proposed. The procedure:
The hypothesis that mitigating mitochondrial dysfunction via scavenging ROS prevents chromatin changes that promote treatment resistance is tested using DNP, a compound in development with uncoupling activity already in Phase I trials for Huntington's Disease. DNP works largely by reducing the mitochondrial electrochemical potential reducing the output of ROS.

Data set [2] in a line: pharmacokinetics of DNP in rats. Format: in vivo.
Data set [3] has as its system BT474 NLS Orp roGFP cells. Briefly: nuclear ROS by NLS-Orp1roGFP2 biosensor in BT474 cells. Format: cell-based, human. Particulars: BT474, varying concentrations of DNP, 24 hours. As for the experimental part:
(§2) FIGS. 3A-3C show how DNP suppresses nuclear ROS in basal BT breast cancer cell lines.
(§3) Nuclear ROS are sufficient and required to activate EMT and metastasis of breast cancer cells. ROS levels were measured in the nuclei of different breast cancer cell lines displaying vastly different tumorigenicity and metastatic potential using novel NLS-Orp1roGFP2 biosensors. […] Also, transformation of MCF10A by v-Src promoted a marked increase in nuclear ROS levels (FIGS. 1A & B). […] To directly link nuclear ROS with aggressive cancer behavior, a nucleus-targeted system (NLS-D-amino acid oxidase, NLS-DAO) was engineered that allows to generate ROS21 directly in the nucleus and expressed it into MCF10A cells to recreate, using a non-transformed cell background, this distinctive feature of metastatic breast cancer cell lines. […] Next, it was tested whether nuclear ROS contributed to treatment failure by promoting resistance to first line chemotherapeutic drugs, i.e. doxorubicin. It was also tested whether removing suppressing ROS specifically in the nucleus restored sensitivity to doxorubicin. The strategy of removing ROS from the nucleus is novel, targets a feature that seems unique to cancer cells and preserves redox signaling that happen in large part in the cytosol22. […]

For data set [4], the system named is models of neurodegeneration. Particulars: very low hermetic doses; cited from earlier work.
The subject of the next data set is wildtype mice. The note with it: chronic, extraordinarily low dose; cited from earlier work.
The subject of the next data set is BT20 NLS Orp roGFP cells. Briefly: nuclear ROS by NLS-Orp1roGFP2 biosensor in BT20 cells. Format: cell-based, human. Particulars: BT20, varying concentrations of DNP, 24 hours. As for the experimental part:
as §2, §3

The test system of the next data set is ion channels. Briefly: inhibition of ion channels.
Description: as §1

For data set [5] the following is noted: treatment 3-hours post-ischemia; cited from earlier work.
The next data set concerns Caco-2. Briefly: Caco-2. Format: in vitro ADME.
Description: as §1

The nature of the next data set: 28-day toxicity studies. Format: in vivo. Particulars: low doses.
Description: as §1

The next data set relates to A2780, M248, MES-SA, MX2. Briefly: chromatin folding by PWS microscopy in cell line models. Format: cell-based. The note with it: for chromatin folding (structural alterations): FIG. 5A, five cell line models. From the text: FIG. 5A is a graph showing structural alterations due to taxol treatment (Paclitaxel or Docetaxel) in contrast to digoxin for five cell line models (A2780, M248, MES-SA, MX2). Chemotherapeutic intervention increases while CPT agent (digoxin) decreases chromatin folding. Error bars: S.E. of 5 different cell lines. FIGS. 5B-5C are diagrams showing intercellular (FIG. 5B) and intra-network (FIG. 5C) transcriptional heterogeneity increases in cells treated with chemotherapy and decreases in cells treated with CPTs for critical biological processes: (1) cell cycle, (2) apoptosis, (3) proliferation, (4) transcription, (5) signaling, (6) differentiation, (7) glycolysis, (8) translation, (9) ion transport, (10) metabolism, (11) oxidation/reduction, (12) stress response, and (13) nucleosome assembly. Circle size: the number of genes within a network/process. Color: % change in transcription heterogeneity compared to controls. […] Digoxin reduces chromatin heterogeneity. Arrow: nuclei.
Chromatin is a complex arrangement of DNA wrapped around structural and regulatory proteins that control the expression of genes directly involved in cellular function and phenotype. Local physicochemical changes broadly affect chromatin folding and alter gene expression patterns across the genome. In a non-limiting example, decoding the chromatin folding code and understanding how different agents affect folding dynamics at the nanoscale can be helpful to develop new diagnostic tools. The resolution of optical microscopy is limited by diffraction to >200 nm. Recently, a major breakthrough has been made in the emergence of super-resolution fluorescence microscopy that enabled development of a suite of label-free nanoscale imaging technologies including Partial Wave Spectroscopic (PWS) Microscopy (see, for example, FIG. 4). The main principle of PWS is a previously overlooked phenomenon that while sub-diffractional structures are not resolvable, they are still detectable through the analysis of interference of elastically scattered light. PWS can measure the statistics of macromolecular density distribution within live or fixed cells with sensitivity in the 20-200 nm length scales, which is ideally suited for the characterization of chromatin topology. It was by using PWS (and corroborated by electron microscopy) that heterogenization of chromatin folding was discovered as one of the earliest events in carcinogenesis across multiple cancer types. Consequently, PWS was turned into a robust diagnostics technology (nanocytology) and is now in clinical trials for early screening or prognostication of lung, colon, and prostate cancers.

For data set [6], the system named is PY230 murine mammary tumor cells. Briefly: proliferation of PY230 cells under doxorubicin. Format: cell-based. The note with it: DXR 250 nM, within a few hours from application. The procedure: (§4) FIGS. 2A-2B show heightened levels of nuclear ROS in persister chemotherapy-resistance cancer cells. FIG. 2A is a collection of images and graphs showing experimental data generated using NLS-Orp1roGFP2 biosensor to measure ROS in the nucleus of breast cancer cell lines. PY230 murine mammary tumor cells expressing NLS-Orp1roGFP2 were treated with doxorubicin (DXR, 250 nM) for the indicated amounts of times in plots of proliferation as well as fluorescence ratios indicate that persister cells have high levels of nuclear ROS and proliferate in the presence of chemotherapy mimicking clinical chemotherapy resistance where most cells initially die leaving persister ones that rapidly proliferate unabated by treatment. Induction of NLS-catalase, that removes ROS from the nucleus, resensitized persister cells to the killing effects of DXR. FIG. 2B is a collection of images showing mammary xenografts of luciferase-labeled transformed MCF10A constitutively expressing NLS-catalase under an inducible promoter rapidly grow and metastasize within 3 months of implantation. […]
Nuclear ROS are sufficient and required to activate EMT and metastasis of breast cancer cells. ROS levels were measured in the nuclei of different breast cancer cell lines displaying vastly different tumorigenicity and metastatic potential using novel NLS-Orp1roGFP2 biosensors. […]

The subject of data set [7] is v-Src transformed luciferase-expressing MCF10A xenografts. Briefly: mammary xenograft of v-Src transformed luciferase-expressing MCF10A. Format: in vivo, NOD/SCID mice. The note with it: doxorubicin combined with NLS-catalase, 2 months of combined therapies, assessed at month 7. The procedure: as §4, with “DXR.” for “DXR. FIG. 2B is a collection of images showing mammary xenografts of luciferase-labeled transformed MCF10A constitutively expressing NLS-catalase under an inducible promoter rapidly grow and metastasize within 3 months of implantation.”
Results in FIG. 2A, closely recapitulate the reality of most clinical cancer treatments that are effective at first eliminating the bulk tumor but that are become ineffective when the disease recur. […] Three months after implantation, metastases were clearly detected by luciferin-induced bioluminescence in the chest and head of most mice FIG. 2B. […]

We go through six molecules from patent publication US20260108476A1, “2,4 DNP and Prodrugs Thereof for Treatment of Cancer” (priority 2021, published 2026).

Entries after “also recorded” stand apart in the source; their conditions may differ.

For `C[C@@H](N)C(=O)O` [D-Ala], the EMT markers entry in the data set on MCF10A/NLS-DAO cells is “increased”.

Turning to `O=[N+]([O-])c1ccc(O)c([N+](=O)[O-])c1` [DNP, 2,4-dinitrophenol], the “inhibition of CYP” value in the data set with CYP is reported as “no inhibition”. In addition, the safety entry in data set [1] is “safe”. In [2], the distribution result is “good” and the oral bioavailability result was “orally bioavailable”. The half-life in [2] (rat, plasma) is around 6 h. Moreover, the “levels of nuclear ROS (ox/red Orp1roGFP2 ratio)” value in data set [3] was “strongly suppresses; also recorded: clear concentration dependence of nROS reduction”. The cognition and learning entry in data set [4] was “improve”. Also, the “lifespan versus untreated mice” value with wildtype mice is listed as “living longer than untreated mice”. Also, the “levels of nuclear ROS (ox/red Orp1roGFP2 ratio)” value in the data set on BT20 NLS Orp roGFP cells is on record as “strongly suppresses; also recorded: clear concentration dependence of nROS reduction”. In addition, the “inhibition of ion channels” value in the data set on ion channels was “no inhibition”. Besides, in data set [5], the “reduction of cerebral infarct volume” value is 40%. In the data set on Caco-2, the “inhibition, Caco-2” value is recorded as “no inhibition”. The “Safety Index” value in “28-day toxicity studies” (28-day toxicity studies) is recorded as at least 10 ×. For the same molecule, the toxicity entry in “28-day toxicity studies” (28-day) is listed as “not toxic”.

Consider `CC(=O)O[C@@]12CO[C@@H]1C[C@H](O)[C@@]1(C)C(=O)[C@H](O)C3=C(C)[C@@H](OC(=O)[C@H](O)[C@@H](NC(=O)OC(C)(C)C)c4ccccc4)C[C@@](O)([C@@H](OC(=O)c4ccccc4)[C@H]21)C3(C)C` [Docetaxel], for which the “chromatin folding (structural alterations)” value (from here on “chromatin folding”) with A2780, M248, MES-SA, MX2 is “increases”.

In the case of `CC(=O)O[C@H]1C(=O)[C@@]2(C)[C@H]([C@H](OC(=O)c3ccccc3)[C@]3(O)C[C@H](OC(=O)[C@H](O)[C@@H](NC(=O)c4ccccc4)c4ccccc4)C(C)=C1C3(C)C)[C@]1(OC(C)=O)CO[C@@H]1C[C@@H]2O` [Paclitaxel], the “chromatin folding” value in the data set on A2780, M248, MES-SA, MX2 is “increases”.

Take `C[C@H]1O[C@@H](O[C@H]2[C@@H](O)C[C@H](O[C@H]3[C@@H](O)C[C@H](O[C@H]4CC[C@@]5(C)[C@H](CC[C@@H]6[C@@H]5C[C@@H](O)[C@]5(C)[C@@H](C7=CC(=O)OC7)CC[C@]65O)C4)O[C@@H]3C)O[C@@H]2C)C[C@H](O)[C@@H]1O` [digoxin]: the “chromatin folding” value with A2780, M248, MES-SA, MX2 is reported as “decreases”. The “chromatin heterogeneity, live cell PWS” value with A2780, M248, MES-SA, MX2 (FIG. 5D) was “reduces”.

Turning to `COc1cccc2c1C(=O)c1c(O)c3c(c(O)c1C2=O)C[C@@](O)(C(=O)CO)C[C@@H]3O[C@H]1C[C@H](N)[C@H](O)[C@H](C)O1` [doxorubicin], the “effect on cell population (proliferation)” value in data set [6] is reported as “eliminated the bulk of cells”. Besides, the “metastatic disease and primary tumor (bioluminescence)” value in data set [7] is listed as “complete remission of metastatic disease as well as significant regression of primary tumor”.

In general, half-life refers to how long it takes for the measured level to halve.
